Earlier results, collected in paper PMC3848067 (Acta Naturae, 2013).
Read-outs that look alike come from different tables or passages of the source.

Key:
[1] = system: HIV-1; conditions: MT-4 cell culture; cited from earlier work
[2] = system: HIV; conditions: cited from earlier work
[3] = system: HIV-1; conditions: cell cultures C8 and JM; cited from earlier work
[4] = cited from earlier work
[5] = system: HIV infection; conditions: cited from earlier work
[6] = system: HXB2 strain of HIV; conditions: HXB2 strain of HIV in blood mononuclear cells; cited from earlier work
[7] = canine whole blood at 37°С; cited from earlier work
[8] = system: IIIB strain of HIV; conditions: IIIB strain of HIV in blood mononuclear cells; cited from earlier work
[9] = system: MT-4 cells; conditions: MT-4 cell culture; cited from earlier work
[10] = system: HIV-1; conditions: MT-4, CEM-SS and CEM-X174 cell lines; cited from earlier work
[11] = system: mice; conditions: intraperitoneal administration to mice; cited from earlier work
[12] = rabbits, single oral dose of the named compound equivalent to 200 mg of AZT/kg; cited from earlier work
[13] = dogs, value for the tested compound (2 or its metabolite AZT), cited from earlier work
[14] = metabolite AZT after oral phosphonate 2, 20 mg/kg, rats; cited from earlier work
[15] = set-up: method as in PMID 20380483; conditions: after oral administration of the named drug; cited from earlier work
[16] = cited from earlier work; remark: listed apart in the source
[17] = dogs, cited from earlier work; for tmax of AZT: oral phosphonate 2 capsules 600 mg daily
[18] = single oral dose of capsules of 2, 10 mg/kg
[19] = single oral dose of capsules of 2, 20 mg/kg
[20] = single oral dose of capsules of 2, 40 mg/kg
[21] = compound 2 orally 600 mg for 7 days, 24 h intervals, day 7

Cc1cn(C2CC(N=[N+]=[N-])C(CO[PH](=O)[O-])O2)c(=O)[nH]c1=O.[Na+] (centres unmarked) [Compound 1, sodium salt of AZT 5’-H-phosphonate]
anti-HIV activity [1]: moderate
selectivity index compared to AZT [1]: higher than that of AZT
penetration of AZT through the placenta ([2]; AZT from phosphazide): capable of efficiently penetrating the placenta
effect on course of pregnancy, fetal maturity or viability ([2]; HIV-infected women): does not affect
prevention of vertical transmission of HIV ([2]; during pregnancy, combined with Retrovir or Nevirapine during childbirth and postnatal period): efficiently prevents vertical transmission of HIV
anti-HIV activity, times higher vs. that of AZT [3]: 10–20 times
half-life in 100% human blood serum [4]: over 6 h
therapeutic efficacy ([5]; HIV-infected patients receiving HAART): significant therapeutic efficacy
tolerability ([5]; adults and children): well tolerated in both adults and children
therapeutic effect (reduction of viral stress, immunorestoration, decrease in risk of concomitant diseases) ([5]; clinical practice): stable positive therapeutic effect
adverse effects typically observed with AZT (vomiting, nausea, headache, diarrhea, myalgia, anemia, thrombocytopenia, neutrocytopenia) ([5]; during phosphazide therapy): No adverse effects
safety in patients with opportunistic infections ([5]; patients with tuberculosis and liver pathologies of viral etiology): safe for patients with tuberculosis and liver pathologies of viral etiology
selectivity index, times higher than that of AZT [6]: 15 times
Т1/2 in canine whole blood [7]: 3 h
selectivity index, times higher than that of AZT [8]: 1.5 times
toxicity as compared to AZT [9]: lower
activity compared to AZT [10]: lower than that of AZT by almost an order of magnitude
mean lethal dose (LD50) [11]: 2300 mg/kg

Cc1cn([C@H]2C[C@H](N=[N+]=[N-])[C@@H](CO)O2)c(=O)[nH]c1=O [AZT, 3’-azido-3’-deoxythymidine]
AUC of AZT [12]: 88.5 ± 25.5 µg·h/mL
Cmax of AZT [12]: 39.64 ± 4.24 µg/mL
MRT of AZT [12]: 2.10 ± 0.30 h
t1/2 of AZT [12]: 2.13 ± 0.71 h
tmax of AZT [12]: 1.0 h
Cmax [13, 18]: 0.36 ± 0.24 µg/mL
Cmax/AUC [13, 18]: 0.119 ± 0.033 h⁻¹
MRT [13, 18]: 8.90 ± 5.34 h
t1/2 [13, 18]: 4.57 ± 1.46 h
tmax [13, 18]: 4.7 ± 1.0 h
Cmax [13, 19]: 0.69 ± 0.49 µg/mL
Cmax/AUC [13, 19]: 0.107 ± 0.023 h⁻¹
MRT [13, 19]: 12.0 ± 2.6 h
t1/2 [13, 19]: 9.7 ± 4.3 h
tmax [13, 19]: 5.0 ± 1.7 h
Cmax [13, 20]: 0.98 ± 0.56 µg/mL
Cmax/AUC [13, 20]: 0.100 ± 0.016 h⁻¹
MRT [13, 20]: 12.2 ± 1.4 h
t1/2 [13, 20]: 7.0 ± 2.5 h
tmax [13, 20]: 6.0 ± 1.3 h
AUC 0-t [14]: 2.27 µg·h/mL
MRT [14]: 6.54 h
tmax [14]: 4 h
Сmax [14]: 0.4 mg/L
Cmax of AZT [15]: ~1.2 µg/mL
tmax of AZT [15]: 0.5 to 0.8 h
half-life period (blood plasma) ([16]; AZT concentration after oral administration of phosphonate 2): 3.9 h
detection of AZT in organs and tissues (liver, kidneys, spleen, lungs, skeletal muscles, mesentery) ([16]; metabolite of phosphonate 2): detected in all these organs and tissues
С0 of AZT in plasma [17, 21]: 0.17 ± 0.07 mg/L
Сmin of AZT in plasma [17, 21]: 0.17 ± 0.07 mg/L
tmax of AZT ([17]; day 1): 2.7 h
tmax of AZT ([17]; day 7): 4 h
